In brackets after ≈: the same amount, converted by molar mass.
What was measured:
[1] = CACO2 permeability a-b/b-a; format: in vitro ADME; conditions: human, Caco-2
[2] = Microsome Stability (15 min), human; format: in vitro ADME; conditions: microsomes
[3] = Microsome Stability (15 min), nude mouse; format: in vitro ADME; conditions: nude, mouse, microsomes
[4] = Microsome Stability (15 min), rat; format: in vitro ADME; conditions: microsomes
mTOR = mTOR (Homo sapiens, UniProt P42345); assay: mTOR Enzyme Assay (DELFIA, purified enzyme); format: biochemical; design: FLAG; conditions: read-out: mTOR Mean IC50
[5] = PAMPA permeability pH 7.4
[6] = Buffer Stability (37° C.)
[7] = In vivo blood/plasma and tumor levels of prodrug and metabolites after 50 mg, kg po; conditions: 50 mg
PI3K alpha = PI3K alpha (Homo sapiens, UniProt P42336); assay: PI3K-alpha Fluorescence Polarization Assay; format: biochemical; conditions: read-out: PI3K alpha Mean IC50
Solubility pH 7.4 = conditions: pH 7.4, aqueous buffer
[8] = Plasma Stability (37° C.), rat
[9] = Plasma Stability (37° C.), nude mouse
[10] = Phase I (NADPH), read-out: Microsome Stability (15 min) T ½ Phase I human
[11] = value after the slash in Table VIc, read-out: Microsome Stability (15 min) T ½ human, second value of cell
[12] = Phase I (NADPH), read-out: Microsome Stability (15 min) T ½ Phase I nude mouse
[13] = value after the slash in Table VIc, read-out: Microsome Stability (15 min) T ½ nude mouse, second value of cell
[14] = Phase I (NADPH), read-out: Microsome Stability (15 min) T ½ Phase I rat
[15] = value after the slash in Table VIc, read-out: Microsome Stability (15 min) T ½ rat, second value of cell

PI3K alpha, sequence (P42336 whole entry, species assumed): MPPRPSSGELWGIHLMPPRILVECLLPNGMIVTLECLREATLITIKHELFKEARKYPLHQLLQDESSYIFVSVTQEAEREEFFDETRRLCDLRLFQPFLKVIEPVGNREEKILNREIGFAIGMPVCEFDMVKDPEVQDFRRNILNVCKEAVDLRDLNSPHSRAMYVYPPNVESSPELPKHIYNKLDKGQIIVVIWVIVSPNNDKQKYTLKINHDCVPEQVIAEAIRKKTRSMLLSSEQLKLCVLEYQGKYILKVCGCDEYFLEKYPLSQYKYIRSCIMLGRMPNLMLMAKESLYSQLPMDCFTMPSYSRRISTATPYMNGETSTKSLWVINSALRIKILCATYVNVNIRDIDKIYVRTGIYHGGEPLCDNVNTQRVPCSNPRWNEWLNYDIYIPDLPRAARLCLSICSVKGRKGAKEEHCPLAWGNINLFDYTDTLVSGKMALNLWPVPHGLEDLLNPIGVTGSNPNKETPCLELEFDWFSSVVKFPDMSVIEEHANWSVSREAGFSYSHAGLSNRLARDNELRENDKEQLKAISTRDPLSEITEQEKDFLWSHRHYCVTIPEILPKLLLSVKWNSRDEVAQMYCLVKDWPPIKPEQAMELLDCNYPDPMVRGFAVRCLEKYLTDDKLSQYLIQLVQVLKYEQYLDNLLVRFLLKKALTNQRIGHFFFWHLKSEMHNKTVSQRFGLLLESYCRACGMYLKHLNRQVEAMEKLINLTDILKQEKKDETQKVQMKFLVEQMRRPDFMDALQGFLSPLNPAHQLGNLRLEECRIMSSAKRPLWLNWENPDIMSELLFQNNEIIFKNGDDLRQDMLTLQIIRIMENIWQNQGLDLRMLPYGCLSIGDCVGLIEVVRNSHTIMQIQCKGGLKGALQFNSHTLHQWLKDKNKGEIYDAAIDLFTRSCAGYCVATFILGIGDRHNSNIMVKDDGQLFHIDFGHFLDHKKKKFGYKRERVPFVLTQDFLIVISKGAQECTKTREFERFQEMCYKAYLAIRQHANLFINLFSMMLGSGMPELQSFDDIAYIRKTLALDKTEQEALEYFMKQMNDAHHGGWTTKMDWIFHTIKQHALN
PI3K alpha, sequence (P27986 whole entry partner, species assumed): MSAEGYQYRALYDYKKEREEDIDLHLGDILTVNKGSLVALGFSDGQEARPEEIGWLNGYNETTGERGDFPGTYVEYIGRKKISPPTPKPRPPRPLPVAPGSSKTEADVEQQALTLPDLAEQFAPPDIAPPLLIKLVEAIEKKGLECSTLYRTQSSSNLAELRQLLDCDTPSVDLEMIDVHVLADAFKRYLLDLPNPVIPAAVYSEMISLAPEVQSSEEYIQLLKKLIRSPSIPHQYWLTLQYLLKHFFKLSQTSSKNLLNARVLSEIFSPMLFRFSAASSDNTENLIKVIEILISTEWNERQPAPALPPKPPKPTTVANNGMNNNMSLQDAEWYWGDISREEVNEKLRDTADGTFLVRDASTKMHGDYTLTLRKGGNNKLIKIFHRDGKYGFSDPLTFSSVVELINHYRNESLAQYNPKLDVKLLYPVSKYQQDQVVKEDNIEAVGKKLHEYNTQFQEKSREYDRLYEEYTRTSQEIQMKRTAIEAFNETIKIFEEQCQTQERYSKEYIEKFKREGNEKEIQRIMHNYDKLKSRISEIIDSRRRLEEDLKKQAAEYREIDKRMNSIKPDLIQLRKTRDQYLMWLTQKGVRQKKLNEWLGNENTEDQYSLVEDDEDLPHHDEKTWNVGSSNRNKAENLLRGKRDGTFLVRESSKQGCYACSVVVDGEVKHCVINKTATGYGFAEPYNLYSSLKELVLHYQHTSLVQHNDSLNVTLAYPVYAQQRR

Structure (SMILES)	half-life [2, 10] [min]	half-life [2, 11] [min]	half-life [3, 12] [min]	half-life [3, 13] [min]	half-life [4, 14] [min]	half-life [4, 15] [min]	IC50 (mTOR) [µM]	PAMPA Pe [5]	Buffer Stability (37° C.) % Remaining (at 16-23 hours) SGF [6] [%]	Buffer Stability (37° C.) % Remaining (at 16-23 hours) SIF [6] [%]	Buffer Stability (37° C.) % Remaining (at 16-23 hours) pH 1 [6] [%]	Buffer Stability (37° C.) % Remaining (at 16-23 hours) pH 4.5 [6] [%]	Buffer Stability (37° C.) % Remaining (at 16-23 hours) pH 6.6 [6] [%]	Buffer Stability (37° C.) % Remaining (at 16-23 hours) pH 7.4 [6] [%]	Buffer Stability (37° C.) % Remaining (at 16-23 hours) pH 9 [6] [%]	IC50 (PI3K alpha) [µM]	solubility (Solubility pH 7.4) [µg/mL]	Plasma Stability (37° C.) % Remaining (3-3.5 hours) rat [8] [%]	Plasma Stability (37° C.) % Remaining (3-3.5 hours) nude mouse [9] [%]	further results
COc1ccc2[nH]c(-c3ccccc3)c(C=C3Oc4cc(O)cc(O)c4C3=O)c2c1 [4,6-dihydroxy-2-[(5-methoxy-2-phenyl-1H-indol-3-yl)methylene]-1-benzofuran-3(2H)-one]	24	5	29	5	> 30	5	0.08	0 10e−6 cm/s	95	77	97	96	83	68	72					Papp A→B ([1]; a − b (first value of cell), read-out: CACO2 Pe a − b): 12.5 nm/s; Papp B→A ([1]; b − a (second value of cell), read-out: CACO2 Pe b − a): 66.5 nm/s; plasma prodrug, Dosed @ 50 mg, kg po (precursor phenolic compound dosed) ([7]; 1 h conc.): bql, bql*; plasma prodrug, Dosed @ 50 mg, kg po (precursor phenolic compound dosed) ([7]; 4 h conc.): bql, bql*
COc1ccc2[nH]c(-c3ccccc3)c(/C=C3\Oc4cc(OC(=O)C(C)(C)C)cc(OC(=O)C(C)(C)C)c4C3=O)c2c1 [Example 10, (2Z)-2-[(5-methoxy-2-phenyl-1H-indol-3-yl)methylene]-3-oxo-2,3-dihydro-1-benzofuran-4,6-diyl bis(2,2-dimethylpropanoate)]	19				12			0 10e−6 cm/s	95	0	86	92	72	44	0	2.78	2 (≈ 3.52 µM)	6	0	
COc1ccc2[nH]c(-c3ccccc3)c(/C=C3\Oc4cc(OC(C)=O)cc(OC(C)=O)c4C3=O)c2c1 [Example 3, (2Z)-2-[(5-methoxy-2-phenyl-1H-indol-3-yl)methylene]-3-oxo-2,3-dihydro-1-benzofuran-4,6-diyl diacetate]	12		9		> 30			0 10e−6 cm/s	66	0	2	64	0	0	0	0.002		42	34	
COc1ccc2c(c1)c(/C=C1\Oc3cc(OC(=O)OC(C)C)cc(OC(=O)OC(C)C)c3C1=O)cn2CCCN(C)C [Example 5, (2Z)-2-({1-[3-(dimethylamino)propyl]-5-methoxy-1H-indol-3-yl}methylene)-3-oxo-2,3-dihydro-1-benzofuran-4,6-diyl diisopropyl biscarbonate]	3		3		< 1			0 10e−6 cm/s	94	0	95	82	63	14	0	> 9.75	3 (≈ 5.17 µM)	0	16	
COc1ccc2c(c1)c(/C=C1\Oc3cc(O)cc(O)c3C1=O)c(C)n2CCN1CCN(C)CC1 [(2Z)-4,6-dihydroxy-2-({5-methoxy-2-methyl-1-[2-(4-methylpiperazin-1-yl)ethyl]-1H-indol-3-yl}methylene)-1-benzofuran-3(2H)-one]	11	17	> 30	25	21	6	0.0225	0 10e−6 cm/s	99	63	99	78	63	66	79		32 (≈ 69 µM)			
COc1ccc2[nH]c(-c3ccccc3)c(/C=C3\Oc4cc(OC(=O)OC(C)C)cc(OC(=O)OC(C)C)c4C3=O)c2c1 [Example 7, diisopropyl (2Z)-2-[(5-methoxy-2-phenyl-1H-indol-3-yl)methylene]-3-oxo-2,3-dihydro-1-benzofuran-4,6-diyl biscarbonate]	5		> 30		3			0 10e−6 cm/s	93	0	94	91	59	16	0	0.896		0	22	
COc1ccc2c(c1)c(/C=C1\Oc3cc(OC(=O)CC(C)C)cc(OC(=O)CC(C)C)c3C1=O)cn2CCCN(C)C [Example 9, (2Z)-2-({1-[3-(dimethylamino)propyl]-5-methoxy-1H-indol-3-yl}methylene)-3-oxo-2,3-dihydro-1-benzofuran-4,6-diyl bis(3-methylbutanoate)]	6		6		4			0 10e−6 cm/s	77	0	73	66	46	0	0	> 10	1 (≈ 1.73 µM)	0	8	
COc1ccc2c(c1)c(/C=C1\Oc3cc(O)ccc3C1=O)c(C)n2CCN1CCN(C)CC1 [(2Z)-6-hydroxy-2-({5-methoxy-2-methyl-1-[2-(4-methylpiperazin-1-yl)ethyl]-1H-indol-3-yl}methylene)-1-benzofuran-3(2H)-one]	6	5	26	20	12	8	0.325	0.01 10e−6 cm/s								0.0122	68 (≈ 152 µM)			

From patent publication US20100061982A1, “3-SUBSTITUTED-1H-INDOLE, 3-SUBSTITUTED-1H-PYRROLO[2,3-B]PYRIDINE AND 3-SUBSTITUTED-1H-PYRROLO[3,2-B]PYRIDINE COMPOUNDS, THEIR USE AS MTOR KINASE AND PI3 KINASE INHIBITORS, AND THEIR SYNTHESES” (priority 2008, published 2010)
